Tested on: MV-4-11 cells
Assay: Gene expression microarray analysis (Affymetrix PrimeView) and GSEA
Assay type: cell-based, human
Parameters: RFU PODN (11730768_x_at) / Fold change /veh PODN (11730768_x_at) / RFU LINC00158 (11744669_a_at) / Fold change /veh LINC00158 (11744669_a_at) / RFU DUSP10 (11751237_a_at) / Fold change /veh DUSP10 (11751237_a_at) / RFU ID3 (11757404_x_at) / Fold change /veh ID3 (11757404_x_at) / RFU PLEKHG5 (11737974_s_at) / Fold change /veh PLEKHG5 (11737974_s_at) / RFU LRRC4B (11730491_at) / Fold change /veh LRRC4B (11730491_at) / RFU GIMAP4 (11747438_a_at) / Fold change /veh GIMAP4 (11747438_a_at) / RFU KRT8 (11758183_x_at) / Fold change /veh KRT8 (11758183_x_at) / RFU CNN1 (11734310_a_at) / Fold change /veh CNN1 (11734310_a_at) / RFU VPS37D (11726825_at) / Fold change /veh VPS37D (11726825_at) / RFU C10orf10 (11716522_x_at) / Fold change /veh C10orf10 (11716522_x_at) / RFU KIR2DL2 /// KIR2DL4 /// KIR2DL5A /// KIR2DL5B /// KIR2DS1 /// KIR2DS2 /// KIR2DS3 /// KIR2DS4 /// KIR3DL3 /// KIR3DL3 /// KIR3DS1 (11738374_at) / Fold change /veh KIR2DL2 /// KIR2DL4 /// KIR2DL5A /// KIR2DL5B /// KIR2DS1 /// KIR2DS2 /// KIR2DS3 /// KIR2DS4 /// KIR3DL3 /// KIR3DL3 /// KIR3DS1 (11738374_at) / RFU C1QL1 (11718748_at) / Fold change /veh C1QL1 (11718748_at) / RFU TMPRSS4 (11747572_a_at) / Fold change /veh TMPRSS4 (11747572_a_at) / RFU HAMP (11756126_x_at) / Fold change /veh HAMP (11756126_x_at) / RFU RNFT2 (11725882_a_at) / Fold change /veh RNFT2 (11725882_a_at) / RFU NR4A2 (11747474_a_at) / Fold change /veh NR4A2 (11747474_a_at) / RFU ABCC12 (11746883_a_at) / Fold change /veh ABCC12 (11746883_a_at) / RFU TMEM136 (11760407_x_at) / Fold change /veh TMEM136 (11760407_x_at) / RFU CLDN22 /// WWC2 (11732394_at) / Fold change /veh CLDN22 /// WWC2 (11732394_at) / RFU HLA-DPB1 (11760878_x_at) / Fold change /veh HLA-DPB1 (11760878_x_at) / RFU SPINT1 (11716480_a_at) / Fold change /veh SPINT1 (11716480_a_at) / RFU GAP43 (11754022_s_at) / Fold change /veh GAP43 (11754022_s_at) / RFU A4GNT (11735810_at) / Fold change /veh A4GNT (11735810_at) / RFU PRB3 (11715151_x_at) / Fold change /veh PRB3 (11715151_x_at) / RFU TUBB4B (11761932_at) / Fold change /veh TUBB4B (11761932_at) / RFU CAPN14 (11732068_a_at) / Fold change /veh CAPN14 (11732068_a_at) / RFU TMCC2 (11721928_a_at) / Fold change /veh TMCC2 (11721928_a_at) / RFU IRGQ (11745062_a_at) / Fold change /veh IRGQ (11745062_a_at) / RFU FAM174B (11720279_a_at) / Fold change /veh FAM174B (11720279_a_at) / RFU TMPRSS4 (11748680_a_at) / Fold change /veh TMPRSS4 (11748680_a_at) / RFU FAM212B (11763350_a_at) / Fold change /veh FAM212B (11763350_a_at) / RFU PLEKHG5 (11743358_a_at) / Fold change /veh PLEKHG5 (11743358_a_at) / RFU ZSCAN30 (11745921_a_at) / Fold change /veh ZSCAN30 (11745921_a_at) / RFU CMKLR1 (11741424_a_at) / Fold change /veh CMKLR1 (11741424_a_at) / RFU LOC101060620 /// MAPK8IP1 (11723275_at) / Fold change /veh LOC101060620 /// MAPK8IP1 (11723275_at) / RFU SPTSSB (11747773_x_at) / Fold change /veh SPTSSB (11747773_x_at) / RFU PRSS12 (11739890_at) / Fold change /veh PRSS12 (11739890_at) / RFU BIN1 (11741810_x_at) / Fold change /veh BIN1 (11741810_x_at) / RFU WNT11 (11732464_a_at) / Fold change /veh WNT11 (11732464_a_at) / RFU C10orf10 (11716521_a_at) / Fold change /veh C10orf10 (11716521_a_at) / RFU C5orf56 (11738089_at) / Fold change /veh C5orf56 (11738089_at) / RFU CYB561 (11721691_x_at) / Fold change /veh CYB561 (11721691_x_at) / RFU ANKRD19P (11752326_a_at) / Fold change /veh ANKRD19P (11752326_a_at) / RFU OR2T12 /// OR2T33 /// OR2T8 (11738714_s_at) / Fold change /veh OR2T12 /// OR2T33 /// OR2T8 (11738714_s_at) / RFU VCAN (11748164_a_at) / Fold change /veh VCAN (11748164_a_at) / RFU JSRP1 (11732532_at) / Fold change /veh JSRP1 (11732532_at) / RFU KRTAP10-11 (11738290_x_at) / Fold change /veh KRTAP10-11 (11738290_x_at) / RFU MYO3A (11730013_a_at) / Fold change /veh MYO3A (11730013_a_at) / RFU EBF3 (11725865_a_at) / Fold change /veh EBF3 (11725865_a_at) / RFU CAMK2N1 (11719241_x_at) / Fold change /veh CAMK2N1 (11719241_x_at) / RFU C5orf56 (11738088_a_at) / Fold change /veh C5orf56 (11738088_a_at) / RFU OLFML3 (11715873_a_at) / Fold change /veh OLFML3 (11715873_a_at) / RFU LOC100653217 /// NTM (11731650_a_at) / Fold change /veh LOC100653217 /// NTM (11731650_a_at) / RFU MAPK11 (11762145_a_at) / Fold change /veh MAPK11 (11762145_a_at) / RFU FIZ1 (11724087_x_at) / Fold change /veh FIZ1 (11724087_x_at) / RFU OASL (11726364_x_at) / Fold change /veh OASL (11726364_x_at) / RFU SOX15 (11748057_x_at) / Fold change /veh SOX15 (11748057_x_at) / RFU CD79A (11719716_a_at) / Fold change /veh CD79A (11719716_a_at) / RFU HIST1H1D (11736915_at) / Fold change /veh HIST1H1D (11736915_at) / RFU CASKIN2 (11723855_a_at) / Fold change /veh CASKIN2 (11723855_a_at) / RFU LOC730098 (11760151_x_at) / Fold change /veh LOC730098 (11760151_x_at) / RFU OR4N2 (11742367_at) / Fold change /veh OR4N2 (11742367_at) / RFU PRRT2 (11749266_a_at) / Fold change /veh PRRT2 (11749266_a_at) / RFU SNX32 (11753110_a_at) / Fold change /veh SNX32 (11753110_a_at) / RFU CDHR5 (11726645_a_at) / Fold change /veh CDHR5 (11726645_a_at) / RFU RCAN1 (11760418_a_at) / Fold change /veh RCAN1 (11760418_a_at) / RFU FAM167A (11723789_a_at) / Fold change /veh FAM167A (11723789_a_at) / RFU FAM26E (11764081_at) / Fold change /veh FAM26E (11764081_at) / RFU ISYNA1 (11749810_s_at) / Fold change /veh ISYNA1 (11749810_s_at) / RFU ACY1 (11761880_at) / Fold change /veh ACY1 (11761880_at) / RFU 11764098_at / Fold change /veh 11764098_at / RFU SAMD14 (11745864_x_at) / Fold change /veh SAMD14 (11745864_x_at) / RFU NPB (11741838_a_at) / Fold change /veh NPB (11741838_a_at) / RFU TMPRSS6 (11731388_a_at) / Fold change /veh TMPRSS6 (11731388_a_at) / RFU KRTAP10-2 (11738614_at) / Fold change /veh KRTAP10-2 (11738614_at) / RFU ARHGAP8 /// PRR5-ARHGAP8 (11727945_x_at) / Fold change /veh ARHGAP8 /// PRR5-ARHGAP8 (11727945_x_at) / RFU KRTAP5-7 /// NADSYN1 (11734609_at) / Fold change /veh KRTAP5-7 /// NADSYN1 (11734609_at) / RFU RASL12 (11751679_a_at) / Fold change /veh RASL12 (11751679_a_at) / RFU CDKN2B (11736163_a_at) / Fold change /veh CDKN2B (11736163_a_at) / RFU PRF1 (11729649_at) / Fold change /veh PRF1 (11729649_at) / RFU, ZNF638 /// ZNF638-IT1 / Fold change vs veh, ZNF638 /// ZNF638-IT1 / RFU, PANK3 / Fold change vs veh, PANK3 / RFU, SH3YL1 / Fold change vs veh, SH3YL1 / RFU, ZEB2 / Fold change vs veh, ZEB2 / RFU, NRIP1 / Fold change vs veh, NRIP1 / RFU, PTTG1IP / Fold change vs veh, PTTG1IP / RFU, CAPN2 / Fold change vs veh, CAPN2 / RFU, MED14 / Fold change vs veh, MED14 / RFU, SNORA58 / Fold change vs veh, SNORA58 / RFU, C1orf63 / Fold change vs veh, C1orf63 / RFU, LRRFIP1 / Fold change vs veh, LRRFIP1 / RFU, NDUFAF7 / Fold change vs veh, NDUFAF7 / RFU, SLC12A2 / Fold change vs veh, SLC12A2 / RFU, IBTK / Fold change vs veh, IBTK / RFU, ESF1 / Fold change vs veh, ESF1 / Fold change vs veh, TMEM50B / RFU, TAOK1 / Fold change vs veh, TAOK1 / RFU, ACBD3 / Fold change vs veh, ACBD3 / RFU, TMA16 / Fold change vs veh, TMA16 / RFU, RWDD3 / Fold change vs veh, RWDD3 / RFU, BCAT1 / Fold change vs veh, BCAT1 / RFU, EDEM3 / Fold change vs veh, EDEM3 / RFU, TMEM33 / Fold change vs veh, TMEM33 / RFU, WDR75 / Fold change vs veh, WDR75 / RFU, AHCTF1 / Fold change vs veh, AHCTF1 / RFU, TFRC / Fold change vs veh, TFRC / RFU, ZDHHC17 / Fold change vs veh, ZDHHC17 / RFU, NOM1 / Fold change vs veh, NOM1 / RFU, ARL8B / Fold change vs veh, ARL8B / RFU, ZBTB11 / Fold change vs veh, ZBTB11 / RFU, TAMM41 / Fold change vs veh, TAMM41 / RFU, KIAA1704 /// LOC100996395 / Fold change vs veh, KIAA1704 /// LOC100996395 / RFU, ING1 / Fold change vs veh, ING1 / RFU, TRMT61B / Fold change vs veh, TRMT61B / RFU, FUBP3 / Fold change vs veh, FUBP3 / RFU, TP53 / Fold change vs veh, TP53 / RFU, TNKS2 / Fold change vs veh, TNKS2 / RFU, ZFP14 / Fold change vs veh, ZFP14 / RFU, ACTR2 / Fold change vs veh, ACTR2 / RFU, PPP3R1 / Fold change vs veh, PPP3R1 / RFU, PIK3R1 / Fold change vs veh, PIK3R1 / RFU, HNRNPA1 / Fold change vs veh, HNRNPA1 / RFU, RNF170 / Fold change vs veh, RNF170 / RFU, ZNF28 / Fold change vs veh, ZNF28 / RFU, RNGTT / Fold change vs veh, RNGTT / RFU, OGT / Fold change vs veh, OGT / RFU, BRD1 / Fold change vs veh, BRD1 / RFU, MARS / Fold change vs veh, MARS / RFU, ZNF655 / Fold change vs veh, ZNF655 / RFU, FAHD1 / Fold change vs veh, FAHD1 / RFU, BDP1 / Fold change vs veh, BDP1 / RFU, LRRCC1 / Fold change vs veh, LRRCC1 / RFU, ARID1A / Fold change vs veh, ARID1A / RFU, ZNF146 / Fold change vs veh, ZNF146 / RFU, ZNF330 / Fold change vs veh, ZNF330 / RFU, GPN3 / Fold change vs veh, GPN3 / RFU, C9orf123 / Fold change vs veh, C9orf123 / RFU, N4BP2L2 / Fold change vs veh, N4BP2L2 / RFU, ARFIP1 / Fold change vs veh, ARFIP1 / RFU, FAM179B / Fold change vs veh, FAM179B / RFU, BCL10 / Fold change vs veh, BCL10 / RFU, UHRF1BP1L / Fold change vs veh, UHRF1BP1L / RFU, BET1 / Fold change vs veh, BET1 / RFU, CNOT2 / Fold change vs veh, CNOT2 / RFU, ZNF268 / Fold change vs veh, ZNF268 / Fold change vs veh, ZNF507 / RFU, DGCR2 / Fold change vs veh, DGCR2 / RFU, WDSUB1 / Fold change vs veh, WDSUB1 / Fold change vs veh, HSP90B1 /// MIR3652 / RFU, ADSS / Fold change vs veh, ADSS / RFU, GK / Fold change vs veh, GK / RFU, ZNF148 / Fold change vs veh, ZNF148 / RFU, TAF9 / Fold change vs veh, TAF9 / RFU, SLC1A5 / Fold change vs veh, SLC1A5 / RFU, SLMO2 / Fold change vs veh, SLMO2 / RFU, ABCC4 / Fold change vs veh, ABCC4 / RFU, LOC101060439 /// RAP1B / Fold change vs veh, LOC101060439 /// RAP1B / RFU, RFX7 / Fold change vs veh, RFX7 / RFU, GTPBP10 / Fold change vs veh, GTPBP10 / RFU, CNEP1R1 / Fold change vs veh, CNEP1R1 / RFU, BIVM-ERCC5 /// ERCC5 / Fold change vs veh, BIVM-ERCC5 /// ERCC5 / RFU, ILF3 / Fold change vs veh, ILF3 / RFU 11762660_at / Fold change /veh 11762660_at / RFU VCAN (11757783_s_at) / Fold change /veh VCAN (11757783_s_at) / RFU DDX43 (11728927_at) / Fold change /veh DDX43 (11728927_at) / RFU KRT8 (11758188_x_at) / Fold change /veh KRT8 (11758188_x_at) / RFU NKD1 (11759106_at) / Fold change /veh NKD1 (11759106_at) / RFU SRD5A1 (11742802_a_at) / Fold change /veh SRD5A1 (11742802_a_at) / RFU TPSAB1 /// TPSB2 (11721975_s_at) / Fold change /veh TPSAB1 /// TPSB2 (11721975_s_at) / RFU GSTM3 (11746129_a_at) / Fold change /veh GSTM3 (11746129_a_at) / RFU IL23R (11737362_x_at) / Fold change /veh IL23R (11737362_x_at) / RFU TMEM51 (11727254_a_at) / Fold change /veh TMEM51 (11727254_a_at) / RFU PIWIL2 (11732686_x_at) / Fold change /veh PIWIL2 (11732686_x_at) / RFU ORM1 (11744905_x_at) / Fold change /veh ORM1 (11744905_x_at) / RFU CCDC152 (11743942_at) / Fold change /veh CCDC152 (11743942_at) / RFU ECM1 (11717891_a_at) / Fold change /veh ECM1 (11717891_a_at) / RFU IL23R (11748794_a_at) / Fold change /veh IL23R (11748794_a_at) / RFU TNFAIP8L3 (11732012_x_at) / Fold change /veh TNFAIP8L3 (11732012_x_at) / RFU MBOAT4 (11741988_at) / Fold change /veh MBOAT4 (11741988_at) / RFU 11764193_at / Fold change /veh 11764193_at / RFU TMEM53 (11763286_at) / Fold change /veh TMEM53 (11763286_at) / RFU MAGEB2 (11727129_at) / Fold change /veh MAGEB2 (11727129_at) / RFU TMEM200A (11744735_a_at) / Fold change /veh TMEM200A (11744735_a_at) / RFU CCDC152 (11751479_a_at) / Fold change /veh CCDC152 (11751479_a_at) / RFU FAM211A (11726209_a_at) / Fold change /veh FAM211A (11726209_a_at) / RFU RGS16 (11746705_a_at) / Fold change /veh RGS16 (11746705_a_at) / RFU VCAN (11755009_s_at) / Fold change /veh VCAN (11755009_s_at) / RFU RHOB (11743442_s_at) / Fold change /veh RHOB (11743442_s_at) / RFU RGS16 (11720943_a_at) / Fold change /veh RGS16 (11720943_a_at) / RFU RGS16 (11720944_at) / Fold change /veh RGS16 (11720944_at) / RFU, VPS4B / Fold change vs veh, VPS4B / RFU, CREB1 / Fold change vs veh, CREB1 / RFU, DNAJC13 / Fold change vs veh, DNAJC13 / RFU, GNAQ / Fold change vs veh, GNAQ / RFU, CDK5R1 / Fold change vs veh, CDK5R1 / RFU, ZRANB3 / Fold change vs veh, ZRANB3 / RFU, CUL4A / Fold change vs veh, CUL4A / RFU, CCNY / Fold change vs veh, CCNY / RFU, UFL1 / Fold change vs veh, UFL1 / RFU, COG3 / Fold change vs veh, COG3 / RFU, DIAPH2 / Fold change vs veh, DIAPH2 / RFU, SKA2 / Fold change vs veh, SKA2 / RFU, AFF3 / Fold change vs veh, AFF3 / RFU, LMF1 / Fold change vs veh, LMF1 / RFU, IPO11 / Fold change vs veh, IPO11 / RFU, DFFB / Fold change vs veh, DFFB / RFU, FOXP1 / Fold change vs veh, FOXP1 / RFU, CARD8 / Fold change vs veh, CARD8 / RFU, STRN3 / Fold change vs veh, STRN3 / RFU, ADK / Fold change vs veh, ADK / RFU, RASSF2 / Fold change vs veh, RASSF2 / RFU, WIPF1 / Fold change vs veh, WIPF1 / RFU, LARP1B / Fold change vs veh, LARP1B / RFU, RASA1 / Fold change vs veh, RASA1 / RFU, RB1 / Fold change vs veh, RB1 / RFU, PPFIA1 / Fold change vs veh, PPFIA1 / RFU, MAT2A / Fold change vs veh, MAT2A / RFU, CCT5 / Fold change vs veh, CCT5 / RFU, WDR92 / Fold change vs veh, WDR92 / RFU, CUX1 / Fold change vs veh, CUX1 / RFU, TTC7A / Fold change vs veh, TTC7A / RFU, TMEM135 / Fold change vs veh, TMEM135 / RFU, DEPTOR / Fold change vs veh, DEPTOR / RFU, CPM / Fold change vs veh, CPM / RFU, DNAJB6 / Fold change vs veh, DNAJB6 / RFU, CACNA2D3 / Fold change vs veh, CACNA2D3 / RFU, DTX4 / Fold change vs veh, DTX4 / RFU, TFCP2 / Fold change vs veh, TFCP2 / RFU, GMCL1 /// GMCL1P1 / Fold change vs veh, GMCL1 /// GMCL1P1 / RFU, AEBP2 / Fold change vs veh, AEBP2 / RFU, SNHG1 /// SNORD22 /// SNORD25 /// SNORD26 /// SNORD27 /// SNORD28 /// SNORD29 /// SNORD31 / Fold change vs veh, SNHG1 /// SNORD22 /// SNORD25 /// SNORD26 /// SNORD27 /// SNORD28 /// SNORD29 /// SNORD31 / Fold change (Aza/veh), C12orf56 (ProbeSet 11735607_a_at) / Fold change (ACY-1035/veh), C12orf56 (ProbeSet 11735607_a_at) / Fold change (Aza/veh), FGFR1OP (ProbeSet 11751329_s_at) / Fold change (ACY-1035/veh), FGFR1OP (ProbeSet 11751329_s_at) / Fold change (Aza/veh), VPS36 (ProbeSet 11739960_a_at) / Fold change (ACY-1035/veh), VPS36 (ProbeSet 11739960_a_at) / RFU SYPL1 (11715823_x_at) / Fold change /veh SYPL1 (11715823_x_at) / RFU IGFBP7 (11715501_s_at) / Fold change /veh IGFBP7 (11715501_s_at) / RFU REEP3 (11722064_at) / Fold change /veh REEP3 (11722064_at) / RFU IGLL1 (11728026_x_at) / Fold change /veh IGLL1 (11728026_x_at): dose or concentration left out as unconfirmed
Details: MV-4-11 cells, 48 hours

## Nc1ccc(-c2cccs2)cc1NC(=O)c1ccc2c(c1)cc(C1CC1)n2CCN1CCOCC1 [ACY-1035]
  Fold change /veh PIWIL2 (11732686_x_at): 0.84

Source: paper PMC5218480 (PLoS ONE, 2017)
